# In US20020052343A1, “Salicylamides as serine protease inhibitors” (priority 1999, published 2002):
# Experiments:
# [1] = molecular target: T1, human Factor Xa (Homo sapiens, UniProt P00742); assay: Factor Xa inhibition, chromogenic substrate hydrolysis, Ki app.; format: biochemical; conditions: 2-3 nM human Factor Xa, substrate 1 mM, 50 mM Tris pH 7.5, absorbance at 405 nm, read-out: FXa Ki
# T1 construct: purchased Haematologic Technologies, Vt., USA
# Procedure: Some of the compounds of the present invention show selectivity between uPA and FXa, with respect to their inhibitory properties. The effectiveness of compounds of the present invention as inhibitors of Urokinase and Factor Xa is determined by using synthetic substrates and purified Urokinase and purified human Factor Xa respectively.
# The rates of hydrolysis by the chromogenic substrates were measured both in the absence and presence of compounds of the present invention. Hydrolysis of the substrates result in the release of a chromogenic moiety, which is monitored spectrophotometrically by measuring the increase in absorbance at 405 nano meter (nm). A decrease in the rate of absorbance change at 405 nm in the presence of a inhibitor is indicative of enzyme inhibition. The results of this assay are expressed as the inhibitory constant, Ki app. Factor Xa determinations were made in 50 mM Tris buffer, pH 7.5, containing 1 M NaCl, 5 mM CaCl2, 0.05% Tween-20, and 1.5 mM EDTA. Values of Ki app. were determined by allowing 2-3 nM human Factor Xa (Haematologic Technologies, Vt., USA) to react with the substrate (1 mM) in the presence of an inhibitor. Hydrolysis of the chromogenic substrate is followed spectrophotometrically at 405 nm for five minutes. The enzyme assay routinely yielded linear progression curves under these conditions. Initial velocity measurements calculated from the progress curves by a kinetic analysis program (Batch Ki; Peter Kuzmic, BioKin, Ltd., Madison, Wis.) were used to determine Ki app.
# [2] = molecular target: T2, human Urokinase (Homo sapiens, UniProt P00749); assay: Urokinase (uPA) inhibition, chromogenic substrate hydrolysis, Ki app.; format: biochemical
# T2 construct: purchased American Diagnostica, Conn., USA
# Procedure: The effectiveness of compounds of the present invention as inhibitors of Urokinase and Factor Xa is determined by using synthetic substrates and purified Urokinase and purified human Factor Xa respectively.
# The rates of hydrolysis by the chromogenic substrates were measured both in the absence and presence of compounds of the present invention. […] The results of this assay are expressed as the inhibitory constant, Ki app. Factor Xa determinations were made in 50 mM Tris buffer, pH 7.5, containing 1 M NaCl, 5 mM CaCl2, 0.05% Tween-20, and 1.5 mM EDTA. […] Initial velocity measurements calculated from the progress curves by a kinetic analysis program (Batch Ki; Peter Kuzmic, BioKin, Ltd., Madison, Wis.) were used to determine Ki app.
# Urokinase inhibition determinations were made in 50 mM Tris (pH 7.5), 150 mM NaCl, 0.05% Tween-20, 0.002% antifoam, and 1 mM EDTA. human Urokinase (from American Diagnostica, Conn., USA). […] Initial velocity measurements calculated from the progress curves by a kinetic analysis program (Batch Ki; Peter Kuzmic, BioKin, Ltd., Madison, Wis.) were used to determine Ki app.
# T1 sequence (P00742 235-488 limits assumed): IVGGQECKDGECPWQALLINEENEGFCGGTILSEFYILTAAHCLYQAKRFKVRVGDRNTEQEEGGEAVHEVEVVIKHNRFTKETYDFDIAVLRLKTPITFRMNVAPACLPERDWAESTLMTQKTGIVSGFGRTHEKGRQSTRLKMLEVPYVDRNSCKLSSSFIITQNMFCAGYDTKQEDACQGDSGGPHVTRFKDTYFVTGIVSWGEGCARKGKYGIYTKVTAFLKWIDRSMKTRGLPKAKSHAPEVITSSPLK
# T1 sequence (P00742 41-179 partner limits assumed): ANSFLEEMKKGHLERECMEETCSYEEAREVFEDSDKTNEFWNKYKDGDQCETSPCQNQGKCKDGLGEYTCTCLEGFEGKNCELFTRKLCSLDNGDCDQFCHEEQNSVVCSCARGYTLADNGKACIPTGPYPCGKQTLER
SMILES,Ki [1] [µM],Ki [2] [µM]
Cc1cc(Br)c(O)c(C(=O)Nc2ccc(C(=N)N)cc2)c1 [Ex. 5],0.84,0.29
"N=C(N)Nc1ccc(NC(=O)c2cc3ccccc3cc2O)cn1 [Ex. 201, 3-hydroxy-naphthalene-2-carboxylic acid (6-guanidino-pyridin-3-yl)-amide]",130,0.326
CC(C)c1cc(C(=O)Nc2ccc(C(=N)N)cc2)c(O)c(C(C)C)c1 [compound 24],34,2.9

# Now from value to compound, other results behind:
Ki [1] [µM],SMILES,Ki [2] [µM]
0.88,"Cc1cc(I)c(O)c(C(=O)Nc2ccc(C(=N)N)cc2)c1 [Ex. 1, N-(4—Carbamimidoyl-phenyl)-2-hydroxy-3-iodo-5-methyl-benzamide]",–
290,Cc1cc(I)c(O)c(C(=O)Nc2ccc(NC(=N)N)nc2)c1 [Ex. 205],5.5
